{
  "source": "ChEMBL document CHEMBL3588845",
  "about": "“Protozoan Parasite Growth Inhibitors Discovered by Cross-Screening Yield Potent Scaffolds for Lead Discovery” (J Med Chem, 2015)",
  "data": [
    {"test_system": "Leishmania major", "experiment": "Antiparasite activity against Leishmania major promastigotes assessed as growth inhibition incubated for 44 hrs by alamar blue dye based fluorescence assay", "format": "functional, organism-based", "conditions": "not given", "units": {"EC50": "nM"}, "values": [
      {"smiles": "N#Cc1cnc2ccc(-c3cccc(N4CCOCC4)c3)cc2c1Nc1ccc(OCc2ccccc2)c(Cl)c1", "EC50": "> 15000"},
      {"smiles": "N#Cc1cnc2ccc(-c3ccc(S(=O)(=O)N4CCOCC4)cc3)cc2c1Nc1ccc(OCc2cccc(F)c2)c(Cl)c1", "EC50": "> 15000"},
      {"smiles": "N#Cc1cnc2ccc(-c3ccc(S(=O)(=O)N4CCOCC4)cc3)cc2c1Nc1ccc(OCc2ccccc2)c(Cl)c1", "EC50": "> 15000"},
      {"smiles": "CN1CCN(S(=O)(=O)c2ccc(-c3ccc4ncc(C#N)c(Nc5ccc(OCc6cccc(F)c6)c(Cl)c5)c4c3)cc2)CC1", "EC50": "> 15000"},
      {"smiles": "CN1CCN(S(=O)(=O)c2ccc(-c3ccc4ncc(C#N)c(Nc5ccc(OCc6ccccc6)c(Cl)c5)c4c3)cc2)CC1", "EC50": 4100},
      {"smiles": "CN1CCCN(S(=O)(=O)c2ccc(-c3ccc4ncc(C#N)c(Nc5ccc(OCc6cccc(F)c6)c(Cl)c5)c4c3)cc2)CC1", "EC50": 920},
      {"smiles": "CN1CCCN(S(=O)(=O)c2ccc(-c3ccc4ncc(C#N)c(Nc5ccc(OCc6ccccc6)c(Cl)c5)c4c3)cc2)CC1", "EC50": 1600}
    ]},
    {"test_system": "Trypanosoma brucei", "experiment": "Antiparasite activity against Trypanosoma brucei 427 assessed as growth inhibition at 5 uM incubated for 48 hrs by PrestoBlue based fluorescence assay", "format": "functional", "conditions": "Trypanosoma brucei, 427, 48 h; read-out: GI", "units": {"inhibition of growth at 5 µM": "%"}, "values": [
      {"smiles": "N#Cc1cnc2ccc(-c3ccc(S(=O)(=O)N4CCOCC4)cc3)cc2c1Nc1ccc(OCc2cccc(F)c2)c(Cl)c1", "inhibition of growth at 5 µM": 15},
      {"smiles": "N#Cc1cnc2ccc(-c3ccc(S(=O)(=O)N4CCOCC4)cc3)cc2c1Nc1ccc(OCc2ccccc2)c(Cl)c1", "inhibition of growth at 5 µM": 33}
    ]},
    {"test_system": "Trypanosoma brucei", "experiment": "Antiparasite activity against Trypanosoma brucei 427 assessed as growth inhibition incubated for 48 hrs by PrestoBlue based fluorescence assay", "format": "functional, organism-based", "conditions": "Trypanosoma brucei, 427, 48 h", "units": {"EC50": "nM"}, "values": [
      {"smiles": "N#Cc1cnc2ccc(-c3cccc(N4CCOCC4)c3)cc2c1Nc1ccc(OCc2ccccc2)c(Cl)c1", "EC50": 760},
      {"smiles": "CN1CCN(S(=O)(=O)c2ccc(-c3ccc4ncc(C#N)c(Nc5ccc(OCc6cccc(F)c6)c(Cl)c5)c4c3)cc2)CC1", "EC50": 1100},
      {"smiles": "CN1CCN(S(=O)(=O)c2ccc(-c3ccc4ncc(C#N)c(Nc5ccc(OCc6ccccc6)c(Cl)c5)c4c3)cc2)CC1", "EC50": 1900},
      {"smiles": "CN1CCCN(S(=O)(=O)c2ccc(-c3ccc4ncc(C#N)c(Nc5ccc(OCc6cccc(F)c6)c(Cl)c5)c4c3)cc2)CC1", "EC50": 350},
      {"smiles": "CN1CCCN(S(=O)(=O)c2ccc(-c3ccc4ncc(C#N)c(Nc5ccc(OCc6ccccc6)c(Cl)c5)c4c3)cc2)CC1", "EC50": 430}
    ]},
    {"test_system": "Trypanosoma cruzi", "experiment": "Antiparasite activity against Trypanosoma cruzi Tulahuen expressing beta-galactosidase assessed as growth inhibition incubated for 96 hrs by CPRG dye based assay", "format": "functional, organism-based", "conditions": "not given", "units": {"EC50": "nM"}, "values": [
      {"smiles": "N#Cc1cnc2ccc(-c3cccc(N4CCOCC4)c3)cc2c1Nc1ccc(OCc2ccccc2)c(Cl)c1", "EC50": "> 50000"},
      {"smiles": "N#Cc1cnc2ccc(-c3ccc(S(=O)(=O)N4CCOCC4)cc3)cc2c1Nc1ccc(OCc2cccc(F)c2)c(Cl)c1", "EC50": "> 50000"},
      {"smiles": "N#Cc1cnc2ccc(-c3ccc(S(=O)(=O)N4CCOCC4)cc3)cc2c1Nc1ccc(OCc2ccccc2)c(Cl)c1", "EC50": "> 50000"},
      {"smiles": "CN1CCN(S(=O)(=O)c2ccc(-c3ccc4ncc(C#N)c(Nc5ccc(OCc6cccc(F)c6)c(Cl)c5)c4c3)cc2)CC1", "EC50": "> 50000"},
      {"smiles": "CN1CCN(S(=O)(=O)c2ccc(-c3ccc4ncc(C#N)c(Nc5ccc(OCc6ccccc6)c(Cl)c5)c4c3)cc2)CC1", "EC50": "> 50000"},
      {"smiles": "CN1CCCN(S(=O)(=O)c2ccc(-c3ccc4ncc(C#N)c(Nc5ccc(OCc6cccc(F)c6)c(Cl)c5)c4c3)cc2)CC1", "EC50": 90},
      {"smiles": "CN1CCCN(S(=O)(=O)c2ccc(-c3ccc4ncc(C#N)c(Nc5ccc(OCc6ccccc6)c(Cl)c5)c4c3)cc2)CC1", "EC50": 950}
    ]},
    {"test_system": "Plasmodium falciparum", "experiment": "Antiparasite activity against drug resistant Plasmodium falciparum C235 assessed as growth inhibition incubated for 72 hrs by SYBR green fluorescence assay", "format": "functional, organism-based", "conditions": "C235, 72 h", "units": {"EC50": "nM"}, "values": [
      {"smiles": "N#Cc1cnc2ccc(-c3cccc(N4CCOCC4)c3)cc2c1Nc1ccc(OCc2ccccc2)c(Cl)c1", "EC50": 970},
      {"smiles": "N#Cc1cnc2ccc(-c3ccc(S(=O)(=O)N4CCOCC4)cc3)cc2c1Nc1ccc(OCc2cccc(F)c2)c(Cl)c1", "EC50": 240},
      {"smiles": "N#Cc1cnc2ccc(-c3ccc(S(=O)(=O)N4CCOCC4)cc3)cc2c1Nc1ccc(OCc2ccccc2)c(Cl)c1", "EC50": 410},
      {"smiles": "CN1CCN(S(=O)(=O)c2ccc(-c3ccc4ncc(C#N)c(Nc5ccc(OCc6cccc(F)c6)c(Cl)c5)c4c3)cc2)CC1", "EC50": 110},
      {"smiles": "CN1CCN(S(=O)(=O)c2ccc(-c3ccc4ncc(C#N)c(Nc5ccc(OCc6ccccc6)c(Cl)c5)c4c3)cc2)CC1", "EC50": 260},
      {"smiles": "CN1CCCN(S(=O)(=O)c2ccc(-c3ccc4ncc(C#N)c(Nc5ccc(OCc6cccc(F)c6)c(Cl)c5)c4c3)cc2)CC1", "EC50": 66},
      {"smiles": "CN1CCCN(S(=O)(=O)c2ccc(-c3ccc4ncc(C#N)c(Nc5ccc(OCc6ccccc6)c(Cl)c5)c4c3)cc2)CC1", "EC50": 58}
    ]},
    {"test_system": "not listed separately", "experiment": "Toxicity against human HepG2 cells incubated for 48 hrs by MTT assay", "format": "cell-based", "conditions": "read-out: TC50", "units": {"CC50 at 48 h": "nM"}, "values": [
      {"smiles": "N#Cc1cnc2ccc(-c3cccc(N4CCOCC4)c3)cc2c1Nc1ccc(OCc2ccccc2)c(Cl)c1", "CC50 at 48 h": "> 15000"},
      {"smiles": "N#Cc1cnc2ccc(-c3ccc(S(=O)(=O)N4CCOCC4)cc3)cc2c1Nc1ccc(OCc2cccc(F)c2)c(Cl)c1", "CC50 at 48 h": "> 15000"},
      {"smiles": "N#Cc1cnc2ccc(-c3ccc(S(=O)(=O)N4CCOCC4)cc3)cc2c1Nc1ccc(OCc2ccccc2)c(Cl)c1", "CC50 at 48 h": "> 15000"},
      {"smiles": "CN1CCN(S(=O)(=O)c2ccc(-c3ccc4ncc(C#N)c(Nc5ccc(OCc6cccc(F)c6)c(Cl)c5)c4c3)cc2)CC1", "CC50 at 48 h": "> 15000"},
      {"smiles": "CN1CCN(S(=O)(=O)c2ccc(-c3ccc4ncc(C#N)c(Nc5ccc(OCc6ccccc6)c(Cl)c5)c4c3)cc2)CC1", "CC50 at 48 h": "> 15000"},
      {"smiles": "CN1CCCN(S(=O)(=O)c2ccc(-c3ccc4ncc(C#N)c(Nc5ccc(OCc6cccc(F)c6)c(Cl)c5)c4c3)cc2)CC1", "CC50 at 48 h": "> 15000"},
      {"smiles": "CN1CCCN(S(=O)(=O)c2ccc(-c3ccc4ncc(C#N)c(Nc5ccc(OCc6ccccc6)c(Cl)c5)c4c3)cc2)CC1", "CC50 at 48 h": 13000}
    ]},
    {"test_system": "Hepatocyte", "experiment": "Intrinsic clearance in rat hepatocytes assessed per 10^6 cells", "format": "ADME, cell-based", "conditions": "not given", "units": {"CLH": "µL/min"}, "values": [
      {"smiles": "CN1CCCN(S(=O)(=O)c2ccc(-c3ccc4ncc(C#N)c(Nc5ccc(OCc6cccc(F)c6)c(Cl)c5)c4c3)cc2)CC1", "CLH": 37.95}
    ]},
    {"test_system": "not listed separately", "experiment": "Protein binding in plasma (unknown origin) assessed as fraction unbound", "format": "ADME, cell-free", "conditions": "not given", "units": {"Fu": "%"}, "values": [
      {"smiles": "CN1CCCN(S(=O)(=O)c2ccc(-c3ccc4ncc(C#N)c(Nc5ccc(OCc6cccc(F)c6)c(Cl)c5)c4c3)cc2)CC1", "Fu": "< 1"}
    ]},
    {"test_system": "Plasmodium falciparum", "experiment": "Antiparasite activity against Plasmodium falciparum D6 assessed as growth inhibition incubated for 72 hrs by SYBR green fluorescence assay", "format": "functional, organism-based", "conditions": "D6, 72 h", "units": {"EC50": "nM"}, "values": [
      {"smiles": "N#Cc1cnc2ccc(-c3cccc(N4CCOCC4)c3)cc2c1Nc1ccc(OCc2ccccc2)c(Cl)c1", "EC50": 970},
      {"smiles": "N#Cc1cnc2ccc(-c3ccc(S(=O)(=O)N4CCOCC4)cc3)cc2c1Nc1ccc(OCc2cccc(F)c2)c(Cl)c1", "EC50": 160},
      {"smiles": "N#Cc1cnc2ccc(-c3ccc(S(=O)(=O)N4CCOCC4)cc3)cc2c1Nc1ccc(OCc2ccccc2)c(Cl)c1", "EC50": 280},
      {"smiles": "CN1CCN(S(=O)(=O)c2ccc(-c3ccc4ncc(C#N)c(Nc5ccc(OCc6cccc(F)c6)c(Cl)c5)c4c3)cc2)CC1", "EC50": 82},
      {"smiles": "CN1CCN(S(=O)(=O)c2ccc(-c3ccc4ncc(C#N)c(Nc5ccc(OCc6ccccc6)c(Cl)c5)c4c3)cc2)CC1", "EC50": 210},
      {"smiles": "CN1CCCN(S(=O)(=O)c2ccc(-c3ccc4ncc(C#N)c(Nc5ccc(OCc6cccc(F)c6)c(Cl)c5)c4c3)cc2)CC1", "EC50": 47},
      {"smiles": "CN1CCCN(S(=O)(=O)c2ccc(-c3ccc4ncc(C#N)c(Nc5ccc(OCc6ccccc6)c(Cl)c5)c4c3)cc2)CC1", "EC50": 58}
    ]},
    {"test_system": "Leishmania major", "experiment": "Antiparasite activity against luciferase-expressing Leishmania major amastigotes isolated from infected in mouse RAW264.7 cells assessed as growth inhibition incubated for 96 hrs by luciferase reporter gene assay", "format": "functional, organism-based", "conditions": "RAW264.7, 96 h", "units": {"EC50": "nM"}, "values": [
      {"smiles": "N#Cc1cnc2ccc(-c3cccc(N4CCOCC4)c3)cc2c1Nc1ccc(OCc2ccccc2)c(Cl)c1", "EC50": "> 15000"},
      {"smiles": "N#Cc1cnc2ccc(-c3ccc(S(=O)(=O)N4CCOCC4)cc3)cc2c1Nc1ccc(OCc2cccc(F)c2)c(Cl)c1", "EC50": "> 15000"},
      {"smiles": "N#Cc1cnc2ccc(-c3ccc(S(=O)(=O)N4CCOCC4)cc3)cc2c1Nc1ccc(OCc2ccccc2)c(Cl)c1", "EC50": "> 15000"},
      {"smiles": "CN1CCN(S(=O)(=O)c2ccc(-c3ccc4ncc(C#N)c(Nc5ccc(OCc6cccc(F)c6)c(Cl)c5)c4c3)cc2)CC1", "EC50": "> 15000"},
      {"smiles": "CN1CCN(S(=O)(=O)c2ccc(-c3ccc4ncc(C#N)c(Nc5ccc(OCc6ccccc6)c(Cl)c5)c4c3)cc2)CC1", "EC50": "> 15000"},
      {"smiles": "CN1CCCN(S(=O)(=O)c2ccc(-c3ccc4ncc(C#N)c(Nc5ccc(OCc6cccc(F)c6)c(Cl)c5)c4c3)cc2)CC1", "EC50": 1600},
      {"smiles": "CN1CCCN(S(=O)(=O)c2ccc(-c3ccc4ncc(C#N)c(Nc5ccc(OCc6ccccc6)c(Cl)c5)c4c3)cc2)CC1", "EC50": 2300}
    ]},
    {"test_system": "Plasmodium falciparum", "experiment": "Antiparasite activity against drug resistant Plasmodium falciparum W2 assessed as growth inhibition incubated for 72 hrs by SYBR green fluorescence assay", "format": "functional, organism-based", "conditions": "W2, 72 h", "units": {"EC50": "nM"}, "values": [
      {"smiles": "N#Cc1cnc2ccc(-c3cccc(N4CCOCC4)c3)cc2c1Nc1ccc(OCc2ccccc2)c(Cl)c1", "EC50": 820},
      {"smiles": "N#Cc1cnc2ccc(-c3ccc(S(=O)(=O)N4CCOCC4)cc3)cc2c1Nc1ccc(OCc2cccc(F)c2)c(Cl)c1", "EC50": 300},
      {"smiles": "N#Cc1cnc2ccc(-c3ccc(S(=O)(=O)N4CCOCC4)cc3)cc2c1Nc1ccc(OCc2ccccc2)c(Cl)c1", "EC50": 580},
      {"smiles": "CN1CCN(S(=O)(=O)c2ccc(-c3ccc4ncc(C#N)c(Nc5ccc(OCc6cccc(F)c6)c(Cl)c5)c4c3)cc2)CC1", "EC50": 200},
      {"smiles": "CN1CCN(S(=O)(=O)c2ccc(-c3ccc4ncc(C#N)c(Nc5ccc(OCc6ccccc6)c(Cl)c5)c4c3)cc2)CC1", "EC50": 510},
      {"smiles": "CN1CCCN(S(=O)(=O)c2ccc(-c3ccc4ncc(C#N)c(Nc5ccc(OCc6cccc(F)c6)c(Cl)c5)c4c3)cc2)CC1", "EC50": 100},
      {"smiles": "CN1CCCN(S(=O)(=O)c2ccc(-c3ccc4ncc(C#N)c(Nc5ccc(OCc6ccccc6)c(Cl)c5)c4c3)cc2)CC1", "EC50": 84}
    ]}
  ]
}
